{
  "source": "patent US20070049593A1",
  "about": "(priority 2004, published 2007)",
  "note": "Structures can show the parent of a compound that is named as a salt.",
  "data": [
    {"molecular_target": "T1, HCV polymerase (Hepatitis C virus genotype 1b, UniProt P26663)", "T1 construct": "a region encoding NS5B (J Virol 1991 March, 65(3), 1105-13, 544 amino acids after deletion of 47 amino acids on the C-terminal); 6xHis (C); made in house; host or cells: Escherichia coli", "T1 sequence (P26663 2420-2963)": "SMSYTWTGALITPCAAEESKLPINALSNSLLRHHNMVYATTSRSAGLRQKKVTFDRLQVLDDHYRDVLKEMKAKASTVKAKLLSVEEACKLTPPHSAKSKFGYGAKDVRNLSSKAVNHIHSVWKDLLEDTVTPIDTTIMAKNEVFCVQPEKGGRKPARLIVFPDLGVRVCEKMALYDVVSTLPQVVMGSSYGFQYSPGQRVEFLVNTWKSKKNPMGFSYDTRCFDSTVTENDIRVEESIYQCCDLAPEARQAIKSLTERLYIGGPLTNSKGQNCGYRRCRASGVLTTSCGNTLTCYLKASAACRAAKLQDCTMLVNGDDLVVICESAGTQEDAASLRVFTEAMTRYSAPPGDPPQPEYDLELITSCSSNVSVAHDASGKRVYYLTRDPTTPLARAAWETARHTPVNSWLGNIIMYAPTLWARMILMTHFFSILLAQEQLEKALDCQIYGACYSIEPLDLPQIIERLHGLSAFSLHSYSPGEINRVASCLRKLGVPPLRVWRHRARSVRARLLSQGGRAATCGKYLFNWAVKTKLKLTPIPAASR", "assay": "biochemical", "parameters": "species or system HCV BK strain", "outline": "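Recombinant HCV BK-strain NS5B (C-terminal 47 aa deleted, His6-tagged, E. coli), 0.5 μg/ml, run with 5 μg/ml in vitro-transcribed RNA template (polyU/3′X), ATP/GTP/CTP 50 μM, UTP 2 μM plus [3H]UTP, pH 7.5, 25° C, 90 min. TCA-precipitated RNA counted by scintillation; IC50 from activity with vs without compound.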", "units": {"IC50": "nM"}, "values": [
      {"smiles": "Cc1ccc2c(c1)N(CCCN1CCCCCC1)CCn1c-2c(C2CCCCC2)c2ccc(C(=O)O)cc21", "note": "[Example 1-300, 5-[3-(azepan-1-yl)propyl]-13-cyclohexyl-3-methyl-6,7-dihydro-5H-benzo[5,6][1,4]diazepino[7,1-a]indole-10-carboxylic acid dihydrochloride]", "IC50": "< 100"},
      {"smiles": "Cc1ccc2c(c1)N(CCCN(C)C)CCn1c-2c(C2CCCCC2)c2ccc(C(=O)O)cc21", "note": "[Example 1-301, 13-cyclohexyl-5-(3-dimethylaminopropyl)-3-methyl-6,7-dihydro-5H-benzo[5,6][1,4]diazepino[7,1-a]indole-10-carboxylic acid dihydrochloride]", "IC50": "< 100"},
      {"smiles": "CCN(CC)CCCN1CCn2c(c(C3CCCCC3)c3ccc(C(=O)O)cc32)-c2ccc(Cl)cc21", "note": "[Example 1-302, 3-chloro-13-cyclohexyl-5-(3-diethylaminopropyl)-6,7-dihydro-5H-benzo[5,6][1,4]diazepino[7,1-a]indole-10-carboxylic acid dihydrochloride]", "IC50": "< 100"},
      {"smiles": "CSc1ccc2c(c1)N(CCN1CCCC1)CCn1c-2c(C2CCCCC2)c2ccc(C(=O)O)cc21", "note": "[Example 1-303, 13-cyclohexyl-3-methylsulfanyl-5-[2-(pyrrolidin-1-yl)ethyl]-6,7-dihydro-5H-benzo[5,6][1,4]diazepino[7,1-a]indole-10-carboxylic acid dihydrochloride]", "IC50": "< 100"},
      {"smiles": "COCC1CCCCN1CCN1CCn2c(c(C3CCCCC3)c3ccc(C(=O)O)cc32)-c2ccc(Cl)cc21", "note": "(centres unmarked) [Example 1-304, 3-chloro-13-cyclohexyl-5-[2-(2-methoxymethylpiperidin-1-yl)ethyl]-6,7-dihydro-5H-benzo[5,6][1,4]diazepino[7,1-a]indole-10-carboxylic acid dihydrochloride]", "IC50": "< 100"},
      {"smiles": "COCC1CCCCN1CCN1CCn2c(c(C3CCCCC3)c3ccc(C(=O)O)cc32)-c2ccc(C)cc21", "note": "(centres unmarked) [Example 1-305, 13-cyclohexyl-5-[2-(2-methoxymethylpiperidin-1-yl)ethyl]-3-methyl-6,7-dihydro-5H-benzo[5,6][1,4]diazepino[7,1-a]indole-10-carboxylic acid dihydrochloride]", "IC50": "< 100"},
      {"smiles": "COCCC1CCCN(CCN2CCn3c(c(C4CCCCC4)c4ccc(C(=O)O)cc43)-c3ccccc32)C1", "note": "(centres unmarked) [Example 1-306, 13-cyclohexyl-5-{2-[3-(2-methoxyethyl)piperidin-1-yl]ethyl}-6,7-dihydro-5H-benzo[5,6][1,4]diazepino[7,1-a]indole-10-carboxylic acid dihydrochloride]", "IC50": "< 100"},
      {"smiles": "COCCC1CCCN(CCN2CCn3c(c(C4CCCCC4)c4ccc(C(=O)O)cc43)-c3ccc(Cl)cc32)C1", "note": "(centres unmarked) [Example 1-307, 3-chloro-13-cyclohexyl-5-{2-[3-(2-methoxyethyl)piperidin-1-yl]ethyl}-6,7-dihydro-5H-benzo[5,6][1,4]diazepino[7,1-a]indole-10-carboxylic acid dihydrochloride]", "IC50": "< 100"},
      {"smiles": "COCCC1CCCN(CCN2CCn3c(c(C4CCCCC4)c4ccc(C(=O)O)cc43)-c3ccc(C)cc32)C1", "note": "(centres unmarked) [Example 1-308, 13-cyclohexyl-5-{2-[3-(2-methoxyethyl)piperidin-1-yl]ethyl}-3-methyl-6,7-dihydro-5H-benzo[5,6][1,4]diazepino[7,1-a]indole-10-carboxylic acid dihydrochloride]", "IC50": "< 100"},
      {"smiles": "CN(C)CCN1CCn2c(c(C3CCCCC3)c3ccc(C(=O)O)cc32)-c2ccc(OCc3cc(S(C)(=O)=O)ccc3N3CCOCC3)cc21", "note": "[Example 1-309, 13-cyclohexyl-5-(2-dimethylaminoethyl)-3-[5-methanesulfonyl-2-(morpholin-4-yl)benzyloxy]-6,7-dihydro-5H-benzo[5,6][1,4]diazepino[7,1-a]indole-10-carboxylic acid trihydrochloride]", "IC50": "< 100"},
      {"smiles": "COC(=O)Oc1ccc2c(c1)N(CCN(C)C)CCn1c-2c(C2CCCCC2)c2ccc(C(=O)O)cc21", "note": "[Example 1-310, 13-cyclohexyl-5-(2-dimethylaminoethyl)-3-methoxycarbonyloxy-6,7-dihydro-5H-benzo[5,6][1,4]diazepino[7,1-a]indole-10-carboxylic acid dihydrochloride]", "IC50": "< 100"},
      {"smiles": "CN(C)CCN1CCn2c(c(C3CCCCC3)c3ccc(C(=O)O)cc32)-c2ccc(Oc3ccccc3)cc21", "note": "[Example 1-311, 13-cyclohexyl-5-(2-dimethylaminoethyl)-3-phenoxy-6,7-dihydro-5H-benzo[5,6][1,4]diazepino[7,1-a]indole-10-carboxylic acid dihydrochloride]", "IC50": "< 100"},
      {"smiles": "CN1CCCCC1CCN1CCn2c(c(C3CCCCC3)c3ccc(C(=O)O)cc32)-c2ccc(Cl)cc21", "note": "(centres unmarked) [Example 1-312, 3-chloro-13-cyclohexyl-5-[2-(1-methylpiperidin-2-yl)ethyl]-6,7-dihydro-5H-benzo[5,6][1,4]diazepino[7,1-a]indole-10-carboxylic acid dihydrochloride]", "IC50": "< 100"},
      {"smiles": "COCC1CCN(CCN2CCn3c(c(C4CCCCC4)c4ccc(C(=O)O)cc43)-c3ccc(Cl)cc32)CC1", "note": "[Example 1-314, 3-chloro-13-cyclohexyl-5-[2-(4-methoxymethylpiperidin-1-yl)ethyl]-6,7-dihydro-5H-benzo[5,6][1,4]diazepino[7,1-a]indole-10-carboxylic acid dihydrochloride]", "IC50": "< 100"},
      {"smiles": "COCC1CCN(CCN2CCn3c(c(C4CCCCC4)c4ccc(C(=O)O)cc43)-c3ccc(C)cc32)CC1", "note": "[Example 1-315, 13-cyclohexyl-5-[2-(4-methoxymethylpiperidin-1-yl)ethyl]-3-methyl-6,7-dihydro-5H-benzo[5,6][1,4]diazepino[7,1-a]indole-10-carboxylic acid dihydrochloride]", "IC50": "< 100"},
      {"smiles": "COC[C@H]1CCCN1CCN1CCn2c(c(C3CCCCC3)c3ccc(C(=O)O)cc32)-c2ccccc21", "note": "[Example 1-316, 13-cyclohexyl-5-[2-((R)-2-methoxymethylpyrrolidin-1-yl)ethyl]-6,7-dihydro-5H-benzo[5,6][1,4]diazepino[7,1-a]indole-10-carboxylic acid dihydrochloride]", "IC50": "< 100"},
      {"smiles": "CCN1CCC(OCCN2CCn3c(c(C4CCCCC4)c4ccc(C(=O)O)cc43)-c3ccc(Cl)cc32)CC1", "note": "[Example 1-317, 3-chloro-13-cyclohexyl-5-[2-(1-ethylpiperidin-4-yloxy)ethyl]-6,7-dihydro-5H-benzo[5,6][1,4]diazepino[7,1-a]indole-10-carboxylic acid dihydrochloride]", "IC50": "< 100"},
      {"smiles": "CC(C)N1CCC(OCCN2CCn3c(c(C4CCCCC4)c4ccc(C(=O)O)cc43)-c3ccc(Cl)cc32)CC1", "note": "[Example 1-318, 3-chloro-13-cyclohexyl-5-[2-(1-isopropylpiperidin-4-yloxy)ethyl]-6,7-dihydro-5H-benzo[5,6][1,4]diazepino[7,1-a]indole-10-carboxylic acid dihydrochloride]", "IC50": "< 100"},
      {"smiles": "CN(CCN1CCn2c(c(C3CCCCC3)c3ccc(C(=O)O)cc32)-c2ccccc21)C1CCCC1", "note": "[Example 1-319, 13-cyclohexyl-5-[2-(N-cyclopentyl-N-methylamino)ethyl]-6,7-dihydro-5H-benzo[5,6][1,4]diazepino[7,1-a]indole-10-carboxylic acid]", "IC50": "< 100"},
      {"smiles": "CC1CCCN(CCCN2CCn3c(c(C4CCCCC4)c4ccc(C(=O)O)cc43)-c3ccc(Cl)cc32)C1", "note": "(centres unmarked) [Example 1-320, 3-chloro-13-cyclohexyl-5-[3-(3-methylpiperidin-1-yl)propyl]-6,7-dihydro-5H-benzo[5,6][1,4]diazepino[7,1-a]indole-10-carboxylic acid]", "IC50": "< 100"},
      {"smiles": "CN(CCN1CCn2c(c(C3CCCCC3)c3ccc(C(=O)O)cc32)-c2ccccc21)C1CCOC1", "note": "(centres unmarked) [Example 1-321, 13-cyclohexyl-5-{2-[N-methyl-N-(tetrahydrofuran-3-yl)amino]ethyl}-6,7-dihydro-5H-benzo[5,6][1,4]diazepino[7,1-a]indole-10-carboxylic acid]", "IC50": "< 100"},
      {"smiles": "CC1CCCCN1CCCN1CCn2c(c(C3CCCCC3)c3ccc(C(=O)O)cc32)-c2ccc(Cl)cc21", "note": "(centres unmarked) [Example 1-322, 3-chloro-13-cyclohexyl-5-[3-(2-methylpiperidin-1-yl)propyl]-6,7-dihydro-5H-benzo[5,6][1,4]diazepino[7,1-a]indole-10-carboxylic acid]", "IC50": "< 100"},
      {"smiles": "CCN1CCCCC1CCN1CCn2c(c(C3CCCCC3)c3ccc(C(=O)O)cc32)-c2ccc(Cl)cc21", "note": "(centres unmarked) [Example 1-323, 3-chloro-13-cyclohexyl-5-[2-(1-ethylpiperidin-2-yl)ethyl]-6,7-dihydro-5H-benzo[5,6][1,4]diazepino[7,1-a]indole-10-carboxylic acid dihydrochloride]", "IC50": "< 100"},
      {"smiles": "CCOC1CCCN(CCN2CCn3c(c(C4CCCCC4)c4ccc(C(=O)O)cc43)-c3ccccc32)C1", "note": "(centres unmarked) [Example 1-324, 13-cyclohexyl-5-[2-(3-ethoxypiperidin-1-yl)ethyl]-6,7-dihydro-5H-benzo[5,6][1,4]diazepino[7,1-a]indole-10-carboxylic acid monohydrochloride]", "IC50": "< 100"},
      {"smiles": "CCOC1CCCN(CCN2CCn3c(c(C4CCCCC4)c4ccc(C(=O)O)cc43)-c3ccc(C)cc32)C1", "note": "(centres unmarked) [Example 1-325, 13-cyclohexyl-5-[2-(3-ethoxypiperidin-1-yl)ethyl]-3-methyl-6,7-dihydro-5H-benzo[5,6][1,4]diazepino[7,1-a]indole-10-carboxylic acid monohydrochloride]", "IC50": "< 100"},
      {"smiles": "CCOC1CCCN(CCN2CCn3c(c(C4CCCCC4)c4ccc(C(=O)O)cc43)-c3ccc(Cl)cc32)C1", "note": "(centres unmarked) [Example 1-326, 3-chloro-13-cyclohexyl-5-[2-(3-ethoxypiperidin-1-yl)ethyl]-6,7-dihydro-5H-benzo[5,6][1,4]diazepino[7,1-a]indole-10-carboxylic acid monohydrochloride]", "IC50": "< 100"}
    ]}
  ]
}
